From US12162861B2, “Dopamine D3 receptor selective antagonists/partial agonists; method of making; and use thereof” (THE UNITED STATES OF AMERICA, AS REPRESENTED BY THE …, priority 2016, dated 2024) come the findings set out here.

Each structure is given as a SMILES string. Entries after “also recorded” stand apart in the source; their conditions may differ.

The nature of series [1]: Phase I metabolic stability in monkey liver microsomes. The series is classed as in vitro ADME, rhesus monkey. The following applies: FIG. 1; 10 μM, 0.5 mg/mL microsomes. On the procedure:
Methods: Phase I metabolic stability assay was conducted in rat and rhesus monkey liver microsomes. For phase I metabolism, the reaction was carried out with 100 mM potassium phosphate buffer, pH 7.4, in the presence of NADPH regenerating system (1.3 mM NADPH, 3.3 mM glucose 6-phosphate, 3.3 mM MgCl2, 0.4 U/mL glucose-6-phosphate dehydrogenase, 50 μM sodium citrate). Reactions in triplicate were initiated by addition of the liver microsomes to the incubation mixture (compound final concentration was 10 μM; 0.5 mg/mL microsomes). Negative controls in the absence of cofactors were carried out to determine the specific cofactor-free degradation. Compound disappearance was monitored via LC/MS/MS. Chromatographic analysis was performed using an Accela™ ultra high-performance system consisting of an analytical pump, and an autosampler coupled with TSQ Vantage mass spectrometer (Thermo Fisher Scientific Inc., Waltham MA). […] The mobile phase used was composed of 0.1% Formic Acid in Acetonitrile and 0.1% Formic Acid in H2O with gradient elution, starting with 10% (organic) linearly increasing to 99% up to 2 min, maintaining at 99% (2-2.5 min) and re-equilibrating to 10% by 2.7 min. The total run time for each analyte was 5.0 min.
(In general: Liver microsomes are a subcellular fraction often used to study metabolism.)

Series [2] relates to squirrel monkeys. The experiment in a line: Food self-administration in squirrel monkeys. The following applies: squirrel monkeys, 1, 3, and 10 mg/kg i.m., FIG. 8. It counts as in vivo, squirrel monkey (Saimiri sciureus). From the text:
Subjects: Seven adult male squirrel monkeys (Saimiri sciureus) weighing 0.8 to 1.1 kg were housed in individual cages in a temperature- and humidity-controlled room with unrestricted access to water. […] The monkeys were trained to self-administer either THC or food pellets prior to the study. Monkeys were fed (approximately two hours after the session) a daily food ration consisting of biscuits of high protein monkey diet (Lab Diet 5045, PMI Nutrition International, Richmond, Indiana). The number of biscuits (8-14) was determined for each monkey individually to maintain their body weights at a constant level throughout the study. Monkeys self-administering food pellets had the number of biscuits adjusted to maintain the motivation to perform a food-reinforced task. Fresh fruits, vegetables and environmental enrichment were provided daily. […]
Data analysis: The number of reinforcements (injections or pellets) per session represents total number of injections delivered during each 1-hour session. The rates of responding are expressed as responses per second averaged over the 1 h session, with time and responding during time-outs not included in calculations. Data are expressed as mean response rates and numbers of reinforcements per session ±SEM. […]

`CCc1cc(Cl)c(OC)c(N2CCN(CC(O)CCNC(=O)c3cc4ccccc4[nH]3)CC2)c1` (racemic) [Compound 29, N-(4-(4-(3-chloro-5-ethyl-2-methoxyphenyl)piperazin-1-yl)-3-hydroxybutyl)-1H-indole-2-carboxamide]: the “metabolic stability in monkey liver microsomes versus PG648” value in series [1] is “improved metabolic stability as compared to Compound 1; also recorded: surprisingly high metabolic stability”. Moreover, the food self-administration entry in series [2] is on record as “has no effect on food self-administration; also recorded: without affecting food self-administration”; in series [2] (listed as (±)-29), “no effect on food self-administration”.
